One block for each compound: values may come before it.
Experiments:
Assay type in all cases: cell-based
T47D cells [1] = assay: Anti-viability / anti-proliferation in T47D cells; conditions: 6 days, CPD-380 vs CPD-343
Experimental: (§1) FIG. 10A-10B show immunoblots of cyclin D1, cyclin D3, CDK4, p-Rb, FoxM1 and cyclin A2 proteins expressed by T47D cells after treatment with a dose range of heterobifunctional compound CPD-343, or its control compound CPD-380 for 48 hours (FIG. 10A), and anti-viability curves of T47D cells in the presence of CP-343, or CPD-380 for 6 days (FIG. 10B).
(§2) To verify that heterobifunctional compound-mediated degradation is dependent on the binding to CDK4-cyclin D complex, we designed three negative control compounds, CPD-042, CPD-049 and CPD-380, which are derived from CPD-002 CPD-031 and CPD-343, respectively. These three control compounds bear the same DDB1 ligand and linker as their corresponding active heterobifunctional compounds but with modified warheads to impair the binding of the control compounds to CDK4. […] However, the binding to CDK4 is not sufficient for cyclin D degradation. Two cereblon (CRBN)-recruiting reference heterobifunctional compounds, CP-10 (Su, J Med Chem, 2019; CAS No.: 2366268-80-4) and BSJ-03-123 (Brand, Cell Chem Biol, 2019; CAS No.: 2361493-16-3) were analyzed in Calu-1 cells.

T47D cells [2] = assay: Flow cytometric analysis of Annexin V/7-AAD stained T47D cells; conditions: 6 days
Experimental: ER^+ breast cancer T47D cells were treated with DMSO, palbociclib, heterobifunctional compound CPD-343, or negative control compound CPD-380 for 6 days at doses approximating IC50 and IC90 concentrations determined in FIGS. 10A and 13. Cells were harvested by trypsinization, staining was carried out using the Annexin V Apoptosis Detection Kit. The percentages of early apoptotic (Annexin V^+7-AAD^−, lower right quadrant), late apoptotic (Annexin V^+7-AAD^+, upper right quadrant) and necrotic cells (Annexin V-7-AAD^+, upper left quadrant) are indicated on dot plots. […] Furthermore, we developed one ER^+ breast cancer T47D model with acquired resistance after long period of treatment with 1 μM palbociclib (over IC90). Cells were deemed resistant when growing in the presence of palbo at the same rate as parental cells. Palbo resistance was determined by CellTiter-Lumi cell viability assay.

T47D cells [3] = assay: Annexin V apoptosis flow cytometry in T47D cells; conditions: 6 days, doses approximating IC50 and IC90
Experimental: T47D cells were treated with DMSO, palbociclib, heterobifunctional compound CPD-343, or negative control compound CPD-380 for 6 days at doses approximating IC50 and IC90 concentrations as indicated. Cells were harvested by trypsinization, staining was carried out using the Annexin V Apoptosis Detection Kit.
Assays were performed on the CytoFLEX Cytometer (Beckman Coulter), and data were analyzed using CytExpert software. For cell death and apoptosis analysis, cells were harvested by trypsinization, staining was carried out using the Annexin V Apoptosis Detection Kit (BD Biosciences). Briefly, cells were resuspended in 1× binding buffer and incubated with fluorochrome-conjugated Annexin V and 7-AAD for 15 min in darkness at room temperature.

[4] = tested on: cyclin D1, cyclin D3, CDK4; assay: Immunoblot of cyclin D and CDK4 degradation in T47D cells; conditions: 48 hours, CPD-380 vs CPD-343
Experimental: as §1, §2

T47D cells [5] = assay: Cell viability assay, T47D; conditions: 10-point serial dilution, 6 days
Experimental: T47D cells were seeded in 96-well plates and treated with of CP-343, or CPD-380 following a 10-point serial dilution for 6 days.
(§3) Cells were seeded at a density of 2,000-5,000 cells per well in 96-well assay plates and treated with test compounds following a 10-point serial dilution for 3-6 days. Cell viability was determined using the CellTiter-Lumi assay kit according to the manufacturer's instructions. The dose-response curves were determined and IC50 values were calculated using the GraphPad Prism software following a nonlinear regression (least squares fit) method. Data presented was mean±standard deviation (SD) unless otherwise indicated.

Cyclin D = assay: Immunoblotting of degradation in T47D cells; conditions: dose range, 48 hours
Experimental: T47D cells were treated with a dose range of heterobifunctional compound CPD-343 or its negative control compound CPD-380 for 48 hours.
(§4) Cultured cells were washed with cold PBS once and lysed in cold RIPA buffer supplemented with protease inhibitors and phosphatase inhibitors (Beyotime Biotechnology). The solutions were then incubated at 4° C. for 30 min with gentle agitation to fully lysed cells. Cell lysates were centrifuged at 13,000 rpm for 10 min at 4° C. and pellets were discarded. Total protein concentrations in the lysates were determined following BCA assays (Beyotime Biotechnology). Cell lysates were mixed with Laemmli loading buffer and heated at 99° C. for 5 min. Proteins were resolved on SDS-PAGE and visualized using Western ECL Substrate kits on a ChemiDoc MP Imaging system (Bio-Rad). Protein bands were quantitated using the Image Lab software provided by Bio-Rad.

P300/CBP = P300/CBP cellular protein degradation
Outline: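 Treated cells lysed in RIPA buffer with protease and phosphatase inhibitors, protein normalized by BCA assay. P300/CBP levels assessed by SDS-PAGE Western blot with ECL detection and band densitometry.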

P300 and CBP [6] = assay: Immunoblot of P300 and CBP protein levels in LNCaP, Calu-1, NCI-H1703 or MM.1R cells; conditions: Calu-1, NCI-H1703 or MM.1R cell lines, 8 hours
From the text: Additional exemplary heterobifunctional compounds were designed to modulate the protein levels of either P300/CBP, or BRD4, and characterized in multiple cell lines. […] Taken together, DDB1 ligands conjugating with different target ligands may modulate the cellular target protein levels of cyclin D, CDK4/6, P300/CBP and BRD4.

P300 and CBP [7] = assay: Immunoblotting of P300 and CBP protein levels in multiple cell lines; conditions: LNCaP, Calu-1, NCI-H1703, or MM.1R cells, 8 hours
Experimental: LNCaP, Calu-1, NCI-H1703, or MM.1R cells were treated with CPD-191 at indicated concentrations for 8 hours.
as §4

[8] = tested on: cyclin D1, cyclin D2, cyclin D3; assay: Immunoblot of cyclin D protein levels in Calu-1 (and BT-549) cells; conditions: Calu-1 cells, 8 hours, dose range
CDK4, CDK6 = assay: Immunoblot of CDK4 and CDK6 protein levels in Calu-1 cells; conditions: 8 hours, dose range
Experimental: Specific exemplary heterobifunctional compounds were characterized in Calu-1, BT-549 and other cells. Cells that express cyclin D1-3 and CDK4/6 proteins were treated with heterobifunctional compounds disclosed herein at indicated concentrations for 16 hours. Cells were collected, lysed and subject to immunoblotting using an antibody specific to cyclin D1, cyclin D2, cyclin D3, CDK4, CDK6 or phosphorylated R^b proteins. Tubulin or GAPDH was used as the loading control. DMSO treatment was used as the negative control.
In a time-course study, Calu-1 cells were treated with 500 nM CPD-002, or 100 nM CPD-031 for indicated period of time prior to immunoblotting (FIG. 4A-4B).
To verify that heterobifunctional compound-mediated degradation is dependent on the binding to CDK4-cyclin D complex, we designed three negative control compounds, CPD-042, CPD-049 and CPD-380, which are derived from CPD-002 CPD-031 and CPD-343, respectively. These three control compounds bear the same DDB1 ligand and linker as their corresponding active heterobifunctional compounds but with modified warheads to impair the binding of the control compounds to CDK4. […] Two cereblon (CRBN)-recruiting reference heterobifunctional compounds, CP-10 (Su, J Med Chem, 2019; CAS No.: 2366268-80-4) and BSJ-03-123 (Brand, Cell Chem Biol, 2019; CAS No.: 2361493-16-3) were analyzed in Calu-1 cells.

[9] = tested on: cyclin D1, cyclin D2, cyclin D3, CDK4 and CDK6; assay: Immunoblotting of cyclin D and CDK4/6 protein levels in Calu-1 cells; conditions: indicated concentrations, 8 hours
Experimental: Calu-1 (FIG. 2A) or BT-549 (FIG. 2B) cells were treated with CPD-002, CPD-004, or palbociclib at indicated concentrations for 16 hours.
Calu-1 cells were treated with CPD-031 at indicated concentrations for 16 hours.
Calu-1 cells were treated with CPD-002 or CPD-031 at 500 nM or 100 nM, respectively for indicated period of time.
Calu-1 cells were pre-treated with DMSO, 20 μM MG-132 (MG), 5 μM MLN4924 (MLN) or 1 μM TAK-243 (TAK) for 2 hours, and subsequently incubated with 500 nM CPD-002, 500 nM CPD-004, or 100 nM CPD-031 for another 4 h or 2 h prior to immunoblotting (FIG. 5A-5B).
Calu-1 cells were treated with a dose range of negative control compounds CPD-042 or CPD-049 for 16 hours (FIG. 6A-6B).
Calu-1 cells were treated with reference compounds CP-10 or BSJ-03-123 at indicated concentrations for 8 hours.
as §4

Calu-1 = assay: Cell viability assay, Calu-1; conditions: Calu-1 cells, 96-well plates, serial dilution, 3 days
Experimental: Cells were treated with CDK4/6 inhibitors palbociclib, ribociclib, or abemaciclib, or heterobifunctional compounds CPD-002 or CPD-031 following a 9-point serial dilution for 3 days.
as §3

Calu-1 cells = assay: Anti-viability / anti-proliferation in Calu-1 cells; conditions: 3 days
Experimental: FIG. 6 show immunoblots of cyclin D1, cyclin D2, cyclin D3, and CDK4 proteins expressed by Calu-1 cells after treatment with a dose range of control compounds CPD-042 (A), or CPD-049 (B) for 16 hours, and anti-viability curves of Calu-1 cells in the presence of CPD-002 and CPD-042 (C), or CPD-031 and CPD-049 (D).
FIG. 11A-11B show immunoblots of cyclin D1, CDK4, and CDK6 proteins expressed by Calu-1 cells after treatment with a dose range of heterobifunctional reference compound CP-10, or BSJ-03-123 for 8 hours (FIG. 11A), and anti-viability curves of Calu-1 cells in the presence of CP-10, or BSJ-03-123 for 3 days (FIG. 11B).
as §2

Structure (SMILES): CNc1ccc(C(=O)Nc2ccc(OC)nn2)c(NC(=O)CCOCCOCCNC(=O)CN2CCN(c3ccc(N(C)c4ncc5c(C)c(C(C)=O)c(=O)n(C6CCCC6)c5n4)nc3)CC2)c1 [CPD-380]
- decrease of cellular anti-proliferation activity versus corresponding active compound (T47D cells [1]): > 20 fold
- Annexin V+ population (T47D cells [2]; 10 nM): 7.1%
- Annexin V+ population (T47D cells [2]; 200 nM): 28.6%
- effect on cell apoptosis (T47D cells [3]): much less effect on cell apoptosis
- decrease of degradation potency versus corresponding active compound [4]: > 15 fold
- cell viability (cellular anti-proliferation activity) (T47D cells [5]): much weaker cellular anti-proliferation activities
- degradation potencies compared with corresponding active heterobifunctional compound (Cyclin D): much weaker degradation potencies

- DC50 (P300 and CBP [6]): < 10 nM
Structure (SMILES): CC(=O)N1CCc2c(c(N3CCCc4cc(-c5cnn(C)c5)c(C(F)F)cc43)nn2C2CCN(CC(=O)NCCCCNc3ccc(C(=O)Nc4ncc(C)s4)c(C)c3)CC2)C1 [CPD-191]
- P300/CBP Degradation (100 nM) (P300/CBP): A (degradation activity >= 80%)
- reduction of P300 and CBP protein levels (P300 and CBP [6]; dose range): significantly reduced
- P300 and CBP protein levels (P300 and CBP [7]): reduced P300 and CBP protein levels in a concentration-dependent manner

Structure (SMILES): CC(=O)c1c(C)c2cnc(Nc3ccc(N4CCN(CCOCCOCCOCCNC(=O)COc5cccc6c5C(=O)N(C5CCC(=O)NC5=O)C6=O)CC4)cn3)nc2n(C2CCCC2)c1=O (centres unmarked) [BSJ-03-123, reference compound]
- cyclin D1 protein levels [8]: did not affect
- CDK4 and CDK6 protein levels (CDK4, CDK6): significantly reduced
- CDK4 and CDK6 protein levels [9]: significantly reduced CDK4 and CDK6 protein levels
- cyclin DC protein levels [9]: didn't affect cyclin DC protein levels
- cell viability (cellular anti-proliferation activity) (Calu-1): didn't significantly suppress tumor cell viability
- Calu-1 cell growth (Calu-1 cells): did not affect cyclin D1 protein levels (FIG. 11A) or suppress Calu-1 cell growth

Reference: patent US20250235543A1, “MODIFIED PROTEINS AND PROTEIN DEGRADERS” (Cullgen (Shanghai), Inc., priority 2021, published 2025)
